± gives the expanded uncertainty stated by the source.

This data set can be described thus: refractive index (Na D-line) (dimensionless). Conditions: 298.15 K; 100 kPa; Liquid; Standard Abbe refractometry.
For orientation: refractive index means a measure of how strongly the sample bends light. Consider `CC(=O)OCCC(C)C` [3-methylbutyl ethanoate], for which the refractive index is 1.39852 ± 0.00037.

Regarding `OCc1ccccc1` [benzenemethanol], the refractive index was found to be 1.53876 ± 0.00037.

As to `C[S+](C)[O-]` [dimethyl sulfoxide], the refractive index was found to be 1.47713 ± 0.00033.

Source of the values: the NIST ThermoML archive (doi:10.1021/acs.jced.9b00396).
